Source: patent publication US4241069A, “3-Methylene flavanones and 3-methylene chromanones” (Miles Laboratories, Inc., priority 1979, dated 1980)
Values after ≈ are worked out from the molar mass of the structure shown.

Tests used:
A. fumigatus NRRL 163 = assay: MIC, agar incorporation method; type: cell-based; conditions: 32° C., 48-72 hours; for MIC: Aspergillus fumigatus, NRRL163, NRRL 163, read-out: Minimal Inhibitory Concentration
In short: (§1)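 Eugon agar incorporation; compound 100–3.1 mcg/ml (to 0.125 in some tests), two-fold steps, DMF vehicle. Inoculum 1,000,000 cells or spores/ml, one drop per plate, 32° C. Visual MIC: bacteria at 24 h, dermatophytes 48–72 h.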

A. fumigatus NRRL 165 = assay: MIC, agar incorporation method; type: cell-based; conditions: Aspergillus fumigatus, NRRL165, 32° C., 48-72 hours, read-out: Minimal Inhibitory Concentration
In short: as §1

[1] = test system: Aspergillus niger ATCC 16404; assay: MIC, agar incorporation method; type: cell-based; conditions: ATCC16404, 32° C., 48-72 hours, read-out: Minimal Inhibitory Concentration
In short: as §1

C. albicans NRRL Y-477 = assay: MIC, agar incorporation method; type: cell-based; conditions: Candida albicans, NRRLY477, 32° C., 24 hours, read-out: Minimal Inhibitory Concentration
In short: as §1

C. guillermondii VM 42 = assay: MIC, agar incorporation method; type: cell-based; conditions: 32° C., 24 hours; read-out: Minimal Inhibitory Concentration
In short: as §1

C. krusei VM 29B = assay: MIC, agar incorporation method; type: cell-based; conditions: Pichia kudriavzevii, VM29B; 32° C., 24 hours; read-out: Minimal Inhibitory Concentration
In short: as §1

C. tropicalis NRRL Y1410 = assay: MIC, agar incorporation method; type: cell-based; conditions: Candida tropicalis, NRRLY1410; 32° C., 24 hours; read-out: Minimal Inhibitory Concentration
In short: as §1

[2] = test system: Candida albicans ATCC 10231; assay: MIC, agar incorporation method; type: cell-based; conditions: ATCC10231, C. albicans ATCC 10231, 32° C., 24 hours, read-out: Minimal Inhibitory Concentration
In short: as §1

[3] = test system: Escherichia coli ATCC 8739; assay: MIC, agar incorporation method; type: cell-based; conditions: ATCC8739, 32° C., 24 hours, read-out: Minimal Inhibitory Concentration
In short: as §1

[4] = test system: Microsporum gypseum ATCC 14683; assay: MIC, agar incorporation method; type: cell-based; conditions: 48-72 hours; for MIC: Nannizzia gypsea, ATCC14683, 32° C., read-out: Minimal Inhibitory Concentration
In short: as §1

[5] = test system: Proteus vulgaris NRRL B123; assay: MIC, agar incorporation method; type: cell-based; conditions: NRRLB123, 32° C., 24 hours, read-out: Minimal Inhibitory Concentration
In short: as §1

[6] = test system: Pseudomonas aeruginosa ATCC 14502; assay: MIC, agar incorporation method; type: cell-based; conditions: ATCC14502, 32° C., 24 hours, read-out: Minimal Inhibitory Concentration
In short: as §1

[7] = test system: Sarcina subflava ATCC 7468; assay: MIC, agar incorporation method; type: cell-based; conditions: ATCC7468, 32° C., 24 hours, read-out: Minimal Inhibitory Concentration
In short: as §1

[8] = test system: Staphylococcus aureus ATCC 6538; assay: MIC, agar incorporation method; type: cell-based; conditions: S. aureus ATCC 6538, 32° C., 24 hours; for MIC: Staphylococcus aureus, ATCC6538, read-out: Minimal Inhibitory Concentration
In short: as §1

[9] = test system: Streptococcus faecalis ATCC 10541; assay: MIC, agar incorporation method; type: cell-based; conditions: Enterococcus faecalis, ATCC10541; 32° C., 24 hours; read-out: Minimal Inhibitory Concentration
In short: as §1

T. mentagrophytes CDC = assay: MIC, agar incorporation method; type: cell-based; conditions: Trichophyton mentagrophytes, 32° C., 48-72 hours, read-out: Minimal Inhibitory Concentration
In short: as §1

T. mentagrophytes TM-2 = assay: MIC, agar incorporation method; type: cell-based; conditions: Trichophyton mentagrophytes, TM2, 32° C., 48-72 hours, read-out: Minimal Inhibitory Concentration
In short: as §1

T. rubrum ATCC 10218 = assay: MIC, agar incorporation method; type: cell-based; conditions: Trichophyton rubrum, ATCC10218; 32° C., 48-72 hours; read-out: Minimal Inhibitory Concentration
In short: as §1

[10] = test system: Trichophyton mentagrophytes ATCC 4807; assay: MIC, agar incorporation method; type: cell-based; conditions: ATCC4807, 32° C., 48-72 hours, read-out: Minimal Inhibitory Concentration
In short: as §1

S. aureus NRRL B2747 [11] = assay: MIC, agar incorporation method; type: cell-based, Staphylococcus aureus; conditions: 24 hours; for MIC: Staphylococcus aureus, NRRLB2747, 32° C., read-out: Minimal Inhibitory Concentration
In short: as §1

[12] = test system: Clostridium acetobutylicum ATCC 824; assay: MIC, agar incorporation method, anaerobic; type: cell-based; conditions: ATCC824, 48 h, 48 hours at 35° C., GasPak Anaerobic Jar, read-out: Minimal Inhibitory Concentration
Method: (§2) The compounds of the present invention were tested for their ability to inhibit the growth of microorganisms by in vitro tests. Generally the in vitro tests involve growing representative microorganisms under conditions favorable to such growth and measuring the effectiveness of one or more compounds in inhibiting or destroying the growth of the microorganisms. The microorganisms used include representative bacteria, fungi and yeasts.
(§3) A representative selection of the test microorganisms were cultured in a nutrient broth, such as, for example, Eugon, commercially available from Difco Laboratories, Detroit, Michigan. Bacteria and Candida species were cultured for 24 hours at 32°-37° C. and fungi were cultured for approximately one week at 32° C. Inocula were prepared by suspending the growth or spores from a slant culture in sufficient sterile normal (0.9 percent) saline or Eugon broth, to yield cell or spore concentrations of 1,000,000 cells per milliliter. Anaerobic bacteria were cultured for 48-72 hours at 32°-37° C. in a thioglycollate containing medium, for example, Fluid Thioglycollate medium or NIH thioglycollate broth, commercially available from Difco Laboratories.
(§4) The compounds of the present invention were tested for activity against bacteria, yeasts and fungi by the agar incorporation method described below. MA 1347, 3-(dimethylaminomethyl)flavanone (disclosed in U.S. Pat. No. 3,753,985) was used as a comparative standard along with controls for each solvent system used.
(§5) A series of agar plates containing two-fold dilutions of each compound to be tested, ranging in concentration from 100 to 3.1 mcg/ml of agar medium was prepared. Aliquots of each concentration (100, 50, 25, 12.5, 6.2, and 3.1) prepared in N,N-dimethylformamide or 50 percent aqueous DMF were added to liquid Eugon agar at 48° C. (one part test solution to 100 parts agar). In some cases, tests with further dilutions to 0.125 mcg/ml were conducted. The agar medium, containing the 3-methylene flavanone or chromanone compound to be tested, was then dispensed into petri dishes and allowed to solidify. The solidified plates were kept overnight at room temperatures to dry the surface of the agar.
(§6) The agar plates were then inoculated with a drop of the standardized cell or spore suspension. Inoculated plates were incubated at 32° C. The inhibition end-point or minimum inhibitory concentration (MIC) shown in Table D represent the lowest concentration of test compound which inhibited the growth of the microorganism. Visual determination of growth inhibition was used. Bacteria and yeast end-points were determined after 24 hours incubation; molds, dermatophytes and anaerobes after 48-72 hours incubation. MIC values shown as ranges represent the extremes found in repeat assays. Virtually all such values were written plus or minus one dilution, the accepted variation of a two-fold dilution assay.
(§7) *Anaerobic: 48 hours incubation at 35° C. GasPak Anaerobic Jar

[13] = test system: Propionobacterium acnes ATCC 6919; assay: MIC, agar incorporation method, anaerobic; type: cell-based; conditions: 48 hours at 35° C., GasPak Anaerobic Jar, read-out: Minimal Inhibitory Concentration
Method: as §2, §3, §4, §5, §6, §7

T. tonsurans ATCC 10217 = assay: MIC, agar incorporation method; type: cell-based; conditions: Trichophyton tonsurans, ATCC10217; 32° C., 48-72 hours; read-out: Minimal Inhibitory Concentration
In short: as §1

[14] = test system: Bacteriodides fragilis ATCC 8482; assay: MIC, agar incorporation method, anaerobic; type: cell-based; conditions: 48 hours at 35° C., GasPak Anaerobic Jar, read-out: Minimal Inhibitory Concentration
Method: as §2, §3, §4, §5, §6, §7

[15] = test system: Clostridium sporogenes ATCC 11437; assay: MIC, agar incorporation method, anaerobic; type: cell-based; conditions: ATCC11437, 48 hours at 35° C., GasPak Anaerobic Jar, read-out: Minimal Inhibitory Concentration
Method: as §2, §3, §4, §5, §6, §7

S. aureus NRRL B2747 [16] = assay: MIC, agar incorporation method, anaerobic; type: cell-based; conditions: Staphylococcus aureus, NRRLB2747, 48 hours at 35° C., GasPak Anaerobic Jar, read-out: Minimal Inhibitory Concentration
Method: as §2, §3, §4, §5, §6, §7

Row | Compound | MIC (A. fumigatus NRRL 163) [µg/mL] | MIC [1] [µg/mL] | MIC (C. albicans NRRL Y-477) [µg/mL] | MIC (C. guillermondii VM 42) [µg/mL] | MIC (C. krusei VM 29B) [µg/mL] | MIC (C. tropicalis NRRL Y1410) [µg/mL] | MIC [2] [µg/mL] | MIC [3] [µg/mL] | MIC [4] [µg/mL] | MIC [5] [µg/mL] | MIC [6] [µg/mL] | MIC [7] [µg/mL] | MIC [8] [µg/mL] | MIC [9] [µg/mL] | MIC (T. mentagrophytes CDC) [µg/mL] | MIC (T. mentagrophytes TM-2) [µg/mL] | MIC (T. rubrum ATCC 10218) [µg/mL] | MIC [10] [µg/mL] | MIC (S. aureus NRRL B2747 [11]) [µg/mL] | MIC [12] [µg/mL] | further results
1 | C=C1C(=O)c2ccccc2OC1c1ccc(C)cc1 (stereo not drawn) [Ex. 13, 4'-methyl-3-methylene flavanone] | 12.5 (≈ 49.9 µM) | 50 (≈ 200 µM) | 25 (≈ 99.9 µM) | 50 (≈ 200 µM) | 25 (≈ 99.9 µM) | 50 (≈ 200 µM) | 25 (≈ 99.9 µM) | > 100 | 6.2 (≈ 24.8 µM) | > 100 | > 100 | 12.5 (≈ 49.9 µM) | 6.2 (≈ 24.8 µM) | 50 (≈ 200 µM) | 6.2 (≈ 24.8 µM) | 6.2 (≈ 24.8 µM) | ≤ 3.1 | 6.2 (≈ 24.8 µM) | 6.2 (≈ 24.8 µM) | ≤ 100 | MIC (A. fumigatus NRRL 165): 50 µg/mL (≈ 200 µM); MIC [13]: ≤ 100 µg/mL
2 | CN(C)CC1C(=O)c2ccccc2OC1c1ccccc1 (stereo not drawn) [MA 1347, 3-(dimethylaminomethyl)flavanone, reference compound] | 6.2 to 25 (≈ 22 to 88.9 µM) | 50 (≈ 178 µM) | 25 (≈ 88.9 µM) | 50 to 100 (≈ 178 to 355 µM) | 12.5 to 25 (≈ 44.4 to 88.9 µM) | 50 to 100 (≈ 178 to 355 µM) | 25 to 50 (≈ 88.9 to 178 µM) | > 100 | 6.2 to 12.5 (≈ 22 to 44.4 µM) | > 100 | > 100 | 12.5 (≈ 44.4 µM) | 6.2 to 12.5 (≈ 22 to 44.4 µM) | 50 (≈ 178 µM) | 6.2 to 12.5 (≈ 22 to 44.4 µM) | 6.2 to 12.5 (≈ 22 to 44.4 µM) | 3.1 to 12.5 (≈ 11 to 44.4 µM) | 6.2 to 12.5 (≈ 22 to 44.4 µM) | 6.2 to 12.5 (≈ 22 to 44.4 µM) | ≤ 100 | Minimal Inhibitory Concentration (A. fumigatus NRRL 163; NRRL 163): 5.2 to 25 µg/mL; Minimal Inhibitory Concentration ([4]; 32° C.): 6.12 to 12.5 µg/mL; Minimal Inhibitory Concentration [8]: 6.2 to 12.5 µg/mL; MIC (T. tonsurans ATCC 10217): 6.2 µg/mL (≈ 22 µM); Minimal Inhibitory Concentration (S. aureus NRRL B2747 [11]; 32° C.): 6.2 to 12.5 µg/mL; MIC [14]: 3.1 µg/mL (≈ 11 µM); MIC [15]: 6.2 µg/mL (≈ 22 µM); MIC [13]: 12.5 µg/mL (≈ 44.4 µM); MIC (S. aureus NRRL B2747 [16]): 25 µg/mL (≈ 88.9 µM)
